How the values were obtained:
HBV = assay: Anti-viral assay in HepG2.2.15 cells: HBV inhibitory activity (HBV DNA in culture medium by q-PCR); assay type: cell-based; settings: Hepatitis B virus, HepG2.2.15, 144 h, HepG2.2.15 cells, 6 days treatment, HBV DNA in culture medium by q-PCR, highest concentration 10 uM; read-out: EC50
Description: (§1) Example 2: Anti-Viral Assay in HepG2.2.15 Cells
(§2) 1.1. Cell Line • HepG2.2.15 (the HepG2.2.15 cell line can be produced by transfection of the HepG2 cell line as described in Sells, Chen, and Acs 1987 (Proc. Natl. Acad. Sci. USA 84:1005-1009), and the HepG2 cell line is available from ATCC® under number HB-8065™). Reagents • DMEM/F12 (INVITROGEN-11330032) • FBS (GIBCO-10099-141) • Dimethyl sulfoxide(DMSO) (SIGMA-D2650) • Penicillin-streptomycin solution (HYCLONE-SV30010) • NEAA (INVITROGEN-1114050) • L-Glutamine (INVITROGEN-25030081) • Geneticin Selective Antibiotic (G418, 500 mg/ml) (INVITROGEN-10131027) • Trypsinase digestion solution (INVITROGEN-25300062) • CCK8 (BIOLOTE-35004) • QIAamp 96 DNA Blood Kit (12) (QIAGEN-51162) • FastStart Universal Probe Mast Mix (ROCHE-04914058001)
(§3) 2.1. HBV Inhibitory Activity and Cytotoxicity Determination
(§4) Seed the cell HepG2.2.15 cells into 96-well plate in 2% FBS culture medium at the density of 40,000 cells/well and 5,000 cells/well for HBV inhibitory activity and cytotoxicity determination, respectively. After seeding, incubate the cell plates at 37° C., 5% CO2 overnight. The next day, medium containing compounds is added to the cell to treat the cells for 6 days with medium refreshed once in the middle of the treatment. 8 dose points with 3 folds dilution of each compound were adopted and the highest concentration of the compounds is 10 uM and 100 uM for HBV inhibitory activity and cytotoxicity determination, respectively.
The HBV DAN change in the cell culture medium induced by the compounds is measured by q-PCR method. Briefly, the HBV DNA in the culture medium is extracted using QIAamp 96 DNA Blood Kit according to the manual and then quantified by q-PCR using the primers and probe in the table below.
(§5) EC50 and CC50 values are calculated by the GRAPHPAD PRISM software.

[1] = Cytotoxicity determination in HepG2.2.15 cells (CCK-8); assay type: cell-based; settings: human, 6 days treatment, CCK-8, highest concentration 100 uM
Description: as §1, §2, §3, §4
After 6 days of compounds treatment, add 20 μl CCK-8 reagents to each well of cytotoxicity assay plates, incubate the plate at 37° C., 5% CO2 for 2.5 h and measure the absorbance at 450 nm wavelength, at the same time read the absorbance at 630 nm wavelength as reference.
as §5

Row | Structure (SMILES) | EC50 (HBV) | CC50 at 6 days [1]
1 | CCOC(=O)C1=C([C@H]2CC[C@H](c3cnn(CC(C)(C)C(=O)O)c3)CC2)NC(c2nccs2)=NC1c1ccc(F)c(F)c1Cl (single isomer, unassigned) [Compound I-37-C, (trans)-3-(4-(4-(6-(2-Chloro-3,4-difluorophenyl)-5-(ethoxycarbonyl)-2-(thiazol-2-yl)-3,6-dihydropyrimidin-4-yl)cyclohexyl)-1H-pyrazol-1-yl)-2,2-dimethylpropanoic Acid] | 0.0083 µM | 2.22 µM
2 | CCOC(=O)C1=C([C@H]2CC[C@H](n3cc(C(=O)O)cn3)CC2)NC(c2nccs2)=NC1c1ccc(F)c(F)c1Cl (single isomer, unassigned) [Compound I-38-B, (trans)-1-(4-(6-(2-Chloro-3,4-difluorophenyl)-5-(ethoxycarbonyl)-2-(thiazol-2-yl)-3,6-dihydropyrimidin-4-yl)cyclohexyl)-1H-pyrazole-4-carboxylic Acid] | < 0.0046 µM | 11.3 µM
3 | CCOC(=O)C1=C([C@H]2CC[C@@H](n3nccc3C(=O)O)CC2)NC(c2nccs2)=NC1c1ccc(F)c(F)c1Cl (single isomer, unassigned) [Compound I-39-B, (cis)-1-(4-(6-(2-Chloro-3,4-difluorophenyl)-5-(ethoxycarbonyl)-2-(thiazol-2-yl)-3,6-dihydropyrimidin-4-yl)cyclohexyl)-1H-pyrazole-5-carboxylic Acid] | 0.082 µM | 7.59 µM
4 | CCOC(=O)C1=C([C@H]2CC[C@H](n3nccc3C(=O)O)CC2)NC(c2nccs2)=NC1c1ccc(F)c(F)c1Cl (single isomer, unassigned) [Compound I-39-C, (trans)-1-(4-(6-(2-Chloro-3,4-difluorophenyl)-5-(ethoxycarbonyl)-2-(thiazol-2-yl)-3,6-dihydropyrimidin-4-yl)cyclohexyl)-1H-pyrazole-5-carboxylic Acid] | 0.11 µM | 7.75 µM
5 | CCOC(=O)C1=C([C@H]2CC[C@H](c3ncc(C(=O)O)cn3)CC2)NC(c2nccs2)=NC1c1ccc(F)c(F)c1Cl (single isomer, unassigned) [Compound I-40-A, (trans)-2-(4-(6-(2-Chloro-3,4-difluorophenyl)-5-(ethoxycarbonyl)-2-(thiazol-2-yl)-3,6-dihydropyrimidin-4-yl)cyclohexyl)pyrimidine-5-carboxylic Acid] | < 0.0046 µM | 4.43 µM
6 | CCOC(=O)C1=C([C@H]2CC[C@H](c3nc(C(=O)O)cs3)CC2)NC(c2nccs2)=NC1c1ccc(F)c(F)c1Cl (single isomer, unassigned) [Compound I-41-B, (trans)-2-(4-(6-(2-Chloro-3,4-difluorophenyl)-5-(ethoxycarbonyl)-2-(thiazol-2-yl)-3,6-dihydropyrimidin-4-yl)cyclohexyl)thiazole-4-carboxylic Acid] | 0.017 µM | 1.02 µM
7 | CCOC(=O)C1=C([C@H]2CC[C@H](c3cc(C(=O)O)no3)CC2)NC(c2nccs2)=NC1c1ccc(F)c(F)c1Cl (single isomer, unassigned) [Compound I-42-B, (trans)-5-(4-(6-(2-Chloro-3,4-difluorophenyl)-5-(ethoxycarbonyl)-2-(thiazol-2-yl)-3,6-dihydropyrimidin-4-yl)cyclohexyl)isoxazole-3-carboxylic Acid] | 0.083 µM | 10.8 µM
8 | CCOC(=O)C1=C([C@H]2CC[C@H](c3cc(C(=O)O)on3)CC2)NC(c2nccs2)=NC1c1ccc(F)c(F)c1Cl (single isomer, unassigned) [Compound I-43-B] | 0.029 µM | 13.7 µM
9 | CCOC(=O)C1=C([C@H]2CC[C@H](c3ccc(C(=O)O)cc3)CC2)NC(c2nccs2)=NC1c1ccc(F)c(F)c1Cl (single isomer, unassigned) [Compound I-44-A, (trans)-4-(4-(6-(2-Chloro-3,4-difluorophenyl)-5-(ethoxycarbonyl)-2-(thiazol-2-yl)-3,6-dihydropyrimidin-4-yl)cyclohexyl)benzoic Acid] | 0.0085 µM | 1.81 µM

Reference: patent US11053235B2, “Substituted 1,4-dihydropyrimidines for the treatment of HBV infection or HBV-induced diseases” (Janssen Sciences Ireland Unlimited Company, priority 2018, dated 2021)
